Laboratory results reported in patent US10329273B2, “Tetrazolone-substituted dihydropyridinone MGAT2 inhibitors” (BRISTOL-MYERS SQUIBB COMPANY, priority 2014, dated 2019).

Biological target: human MGAT-2 (Homo sapiens (Human), UniProt Q3SYC2)
Experiment: MGAT LCMS assay
Format: biochemical
Details: human MGAT-2 membranes expressed in Sf9 cells; 100 μM 2-oleoylglycerol, 15 μM oleoyl-coenzyme A; read-out: h-MGAT LCMS IC50
Description: The MGAT enzyme reactions were performed in Corning FALCON® 96-well polypropylene plates, in a total volume of 60 μL of 50 mM potassium phosphate buffer pH 7.4, containing a final concentration of 100 μM 2-oleoylglycerol, 15 μM oleoyl-coenzyme A and 0.0013 μg/μL human or mouse MGAT-2 or 0.0026 μg/μL rat recombinant MGAT-2 membranes expressed in Sf9 cells. Assay plates were run through a fully automated robotics system and shaken for 5 seconds every minute for a total 10 minutes. The reactions were then quenched with 120 μL of ice cold methanol containing 1 μg/mL 1,2-distearoyl-rac-glycerol as the internal standard. Plates were shaken for 2 minutes and spun down to remove protein precipitation. After the spin, samples were transferred to LC/MS compatible PCR plates. For LC/MS analysis, a ThermoFisher Surveyor pump, utilizing a Waters SYMMETRY® C8, 50×2.1 mm column, was used for the chromatography of enzyme products. The buffer system consists of 0.1% formic acid in water with a mobile phase consisting 0.1% formic acid in methanol. The shallow gradient is 90-100% mobile phase in 0.2 min with a total run time of 2.3 min. […]
The exemplified Examples disclosed below were tested in the MGAT2 in vitro assays described above and were found having MGAT2 inhibitory activity. Table 1 below lists human MGAT2 IC50 values measured for the following examples.

Chain of human MGAT-2 (Q3SYC2 whole entry): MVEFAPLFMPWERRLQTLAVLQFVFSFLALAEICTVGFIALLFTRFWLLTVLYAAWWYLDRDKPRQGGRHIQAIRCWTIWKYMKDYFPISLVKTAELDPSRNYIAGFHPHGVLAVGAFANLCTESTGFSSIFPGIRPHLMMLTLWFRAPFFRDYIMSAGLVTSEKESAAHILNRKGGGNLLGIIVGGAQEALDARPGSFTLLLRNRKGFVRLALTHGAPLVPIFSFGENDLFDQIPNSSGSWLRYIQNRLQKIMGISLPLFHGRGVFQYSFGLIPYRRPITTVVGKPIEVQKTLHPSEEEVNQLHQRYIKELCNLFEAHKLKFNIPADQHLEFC

## O=C1N[C@@](c2ccc(OCCCC(F)(F)F)cc2F)(C(F)(F)F)CC(c2ccn(CC3CCC3)n2)=C1n1nn[nH]c1=O [Example 16]
  IC50: 5 nM
